US8658591B2, “Multi-LEU peptides and analogues thereof as selective PACE4 inhibitors and effective antiproliferative agents” (priority 2008, dated 2014)
*: point of attachment. Cholyl = C[C@H](CCC(=O)*)[C@H]1CC[C@H]2[C@@H]3[C@H](O)C[C@@H]4C[C@H](O)CC[C@]4(C)[C@H]3C[C@H](O)[C@]12C

Legend:
[1] = tested on: prostatic cell line DU145; assay: MTT cell proliferation index, DU145; format: cell-based, human; settings: for Cell proliferation index: control = 100%, MTT after 48 hours
Procedure: The effects of the PACE4 inhibitors on cell proliferation were evaluated. MTT assay was used to evaluate the effects of PACE4 inhibitors on cell proliferation. MTT (3-(4,5-Dimethylthiazol-2-yl)-2,5-diphenyltetrazolium bromide) assay is a standard colorimetric assay for measuring cellular proliferation. Yellow MTT is reduced to purple formazan in the mitochondria of living cells. This reduction takes place only when mitochondrial reductase enzymes are active. Conversion is directly related to the number of viable cells. The MTT assay is quantitative and more sensitive than viability using trypan blue and can also be adapted to 96 well formats, whereas trypan blue tests must be read individually. Because the MTT assay requires less cell manipulation than [^3H]thymidine incorporation assays (no cell harvesting or medium changes are necessary), the possibility of error is reduced and the standard deviation values are lower. […] Other assays also known can be used to determine the effects of an inhibitor on the proliferation of a cell.
The index of cellular proliferation of cells treated with the ML and acetyl-ML (CH3CO—NH-[…]-CONH2 (SEQ ID NO: 5), see Table 2) peptides were measured using the colorimetric MTT assay (thiazolyl blue tetrazolium bromide; Sigma-Aldrich). Briefly, cells were seeded in 96-well plate (BD Biosciences) in triplicate with 100 μl of a 3.5×10^4 cells/ml cell suspension in complete growth medium. The following day, cells were carefully washed twice with PBS and media were replaced with 100 μl of either RPMI or conditioned growth media. Conditioned growth medium preparation consists in 1.2×10^5 cells seeded in 6-well plates with complete growth media. The next day, cells are washed twice with PBS and the media are replaced with 1 ml RPMI growth medium. 48 hours later, the conditioned media are collected, filtered through […] syringe filter units and incubated on different cell lines.
48 hours later, 20 μl of a MTT solution (5 mg/ml in PBS 1×) was added to each well for 4.5 h at 37° C./5% CO2. The media was then discarded and the cells were solubilized with 100 μl isopropanol/0.04 N HCl solution. The absorbance was measured at a wavelength of 550 nm with a reference at 650 nm in microplate reader (SpectraMax190™; Molecular Devices).

[2] = tested on: DU145 cells implanted subcutaneously; assay: DU145 xenograft tumor growth in nude mice; format: in vivo, Nu/Nu mice; settings: intra-tumoral 30 mg/kg once every 2 days, start at 50 mm^3 twenty days after implantation; vehicle control 160 mm^3
Text: To test the effects of PACE4 inhibitors in vivo, a nude mouse model was used in order to validate PACE4's role in tumor progression within an integrated system. […] The genetic basis of the nude mouse mutation is a disruption of the Foxn1 gene. The nude mouse can receive many different types of tissue and tumor grafts, as it mounts no rejection response. These xenografts are commonly used to test new methods of treating tumors. Nude mice were used to test the tumor progression of control DU145 cells compared to PACE4 silenced DU145 cells (clone 4-2) (FIG. 11). Control tumor received vehicle (DMSO) injections. Control tumor continued their growth pattern, reaching an average size of 160 mm^3, while treated tumors only reached a size of 75 mm^3 (FIG. 11A). Consequently, PACE4 inhibition by the specific inhibitors described herein reduces tumors growth. The nude mouse model is well known and extensively tested (Naomoto et al., 1987, J. Cancer Res. Clin. Oncol., 113: 544-549; Taetle et al., 1987 Cancer Treat. Rep. 71: 297-304).
DU145 cells were implanted subcutaneously (sc) at two sites on the backs of Nu/Nu mice, which lack an immune system. […] The genetic basis of the nude mouse mutation is a disruption of the Foxn1 gene. The nude mouse can receive many different types of tissue and tumor grafts, as it mounts no rejection response. […]

Cholyl-NH-LLLLRVKR-NH2 (Cholyl-LLLLRVKR-NH2) [cholyl ML]
effect on cell proliferation index, in words ([1]; DU145): more potent effects than ML or acetyl-ML peptides | Cell proliferation index ([1]; DU145, 1 μM peptide): 86.65% | Cell proliferation index ([1]; DU145, 10 μM peptide): 38.70% | Cell proliferation index ([1]; DU145, 100 μM peptide): 4.36% | average tumor size reached [2]: 75 mm^3
